Reference: paper PMC9311798, “A Novel Class of Potent Anti-Tyrosinase Compounds with Antioxidant Activity, 2-(Substituted phenyl)-5-(trifluoromethyl)benzo[d]thiazoles: In Vitro and In Silico Insights” (Antioxidants, 2022)

Columns and labels:
[1] = tested on: B16F10 murine melanoma cells; assay: B16F10 cell viability assay (EZ-Cytox); type: cell-based; conditions: concentrations ≤20 μM, 48 h
Experimental: B16F10 murine melanoma cells were obtained from the American Type Culture Collection (ATCC, Manassas, VA, USA). Phosphate buffer solution (PBS), Dulbecco’s modified Eagle’s medium (DMEM), streptomycin, penicillin, trypsin, and fetal bovine serum (FBS) were purchased from Gibco/Thermo Fisher Scientific (Carlsbad, CA, USA). B16F10 cells were cultured in a DMEM solution comprising 10% heat-inactivated FBS, penicillin (100 IU/mL), and streptomycin (100 µg/mL), at 37 °C in a humidified 5% CO2 atmosphere. Experiments for anti-melanogenesis activity, cell viability, and anti-tyrosinase activity were assayed on these cells in 96- or 6-well culture plates.
Cell viability assays for B16F10 were performed using the EZ-Cytox assay (EZ-3000, DoGenBio, Seoul, Korea). In brief, B16F10 cells were seeded in a 96-well plate at a density of 1 × 10^4 cells/well, and cultured at 37 °C for 24 h in a humidified 5% CO2 atmosphere. The next day, B16F10 cells were exposed to six concentrations of 1a or 1b (0, 1, 2, 5, 10, or 20 μM), and incubated under the same conditions for 48 h. Then, the EZ-Cytox solution (10 μL) was added to each well, and the cells mixed with the EZ-Cytox solution were further incubated for 2 h. At 450 nm, optical densities were measured using a microplate reader (VersaMax^TM, Molecular Devices, Sunnyvale, CA, USA).

[2] = tested on: B16F10 murine melanoma cells; assay: Extracellular melanin content (melanin release into medium) in α-MSH/IBMX-stimulated cells; type: cell-based
Experimental: The anti-melanogenic activities of 1a and 1b were determined using a standard melanin content assay, with minor changes. Briefly, B16F10 cells were seeded in the wells of a 6-well plate at a density of 1 × 10^5 cells/well, and allowed to adhere to well bottoms over 24 h under the conditions used for cell culture (Section 2.3.5). […] Absorbances of culture media at 405 nm were used to determine extracellular melanin contents.

[3] = tested on: B16F10 murine melanoma cells; assay: Intracellular melanin content in α-MSH/IBMX-stimulated cells; type: cell-based
Experimental: The cultured cells were rinsed with PBS twice and pellets were dissolved in 200 µL of 1N-NaOH solution containing 10% DMSO for 1 h at 60 °C. Cell lysates were then transferred to a 96-well plate, and the melanin absorbances were measured in aqueous DMSO at 405 nm using a microplate reader (VersaMax^TM, Molecular Devices, Sunnyvale, CA, USA).

[4] = target: T1, cellular tyrosinase in B16F10 cells (Mus musculus, UniProt P11344); assay: Cellular tyrosinase activity (L-DOPA oxidation) in α-MSH/IBMX-stimulated cells; type: cell-based, murine
T1 construct: endogenous in cells; host or cells: B16F10 murine melanoma cells, stimulated with alpha-MSH and IBMX
T1 sequence (P11344 19-533): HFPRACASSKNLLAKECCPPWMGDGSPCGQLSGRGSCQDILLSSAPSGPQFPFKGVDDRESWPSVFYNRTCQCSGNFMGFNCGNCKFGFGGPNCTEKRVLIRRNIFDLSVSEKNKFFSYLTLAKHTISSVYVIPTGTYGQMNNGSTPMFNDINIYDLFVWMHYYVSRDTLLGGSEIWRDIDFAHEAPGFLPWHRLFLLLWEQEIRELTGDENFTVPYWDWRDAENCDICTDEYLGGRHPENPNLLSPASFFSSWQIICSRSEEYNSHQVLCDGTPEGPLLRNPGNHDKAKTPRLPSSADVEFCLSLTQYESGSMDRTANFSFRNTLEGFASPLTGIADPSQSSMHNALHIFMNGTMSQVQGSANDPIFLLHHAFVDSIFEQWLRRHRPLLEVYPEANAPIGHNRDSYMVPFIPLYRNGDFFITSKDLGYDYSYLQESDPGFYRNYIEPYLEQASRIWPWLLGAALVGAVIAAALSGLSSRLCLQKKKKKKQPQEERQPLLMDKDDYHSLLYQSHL
Experimental: Cellular tyrosinase activity was assessed by measuring the oxidation rate of L-DOPA as previously described, with minor modifications. In brief, B16F10 cells were seeded in a 6-well plate at 1 × 10^5 cells/well, and allowed to adhere to well bottoms for 24 h, as described in Section 2.3.5. […]. Cells were then rinsed twice with PBS, exposed to 100 µL of lysis buffer solution (90 µL of 50 mM phosphate buffer (pH 6.5), 5 µL of 2 mM PMSF, and 5 µL of 20% Triton X-100), and lysed at −80 °C for 30 min. After defrosting, cell lysates were transferred to microcentrifuge tubes and centrifuged at 12,000 rpm for 30 min at 4°C, and supernatants (80 µL) were mixed with 20 µL of L-DOPA (2 mg/mL) in a 96-well plate, and incubated for 10 min at 37 °C. Absorbances were measured at 475 nm using a microplate reader (VersaMax^TM, Molecular Devices, Sunnyvale, CA, USA).

mushroom tyrosinase = target: T2, mushroom tyrosinase (Agaricus bisporus, UniProt C7FF04); assay: Mushroom tyrosinase inhibition assay; type: biochemical
T2 construct: purchased Sigma-Aldrich
T2 sequence (C7FF04 1-392 limits assumed): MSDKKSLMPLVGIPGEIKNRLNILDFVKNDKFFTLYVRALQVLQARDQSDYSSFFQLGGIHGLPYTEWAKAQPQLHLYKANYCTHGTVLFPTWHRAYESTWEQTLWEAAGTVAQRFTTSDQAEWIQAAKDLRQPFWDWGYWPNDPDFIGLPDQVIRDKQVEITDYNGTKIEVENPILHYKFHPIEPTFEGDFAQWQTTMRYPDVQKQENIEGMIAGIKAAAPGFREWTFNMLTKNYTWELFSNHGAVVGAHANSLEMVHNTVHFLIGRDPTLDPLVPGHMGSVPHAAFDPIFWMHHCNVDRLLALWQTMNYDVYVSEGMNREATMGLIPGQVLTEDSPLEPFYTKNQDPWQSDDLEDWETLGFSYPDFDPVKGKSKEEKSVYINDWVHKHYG
Experimental: Mushroom tyrosinase inhibitory activity was determined as described previously, with minor modifications. L-Tyrosine was used as a substrate to determine enzyme activities. […] These dose-dependent inhibition experiments were carried out three times using three to five different concentrations of test compounds to determine IC50 values. Log–linear curves and their equations were derived from the observed percentages of inhibition.

[5] = 10 µM, compared with kojic acid 20 µM
[6] = read-out: Mushroom tyrosinase inhibition (%)

**Q.** With `Oc1ccc(-c2nc3cc(C(F)(F)F)ccc3s2)cc1` [Compound 1a, 4-(5-(Trifluoromethyl)benzo[d]thiazol-2-yl)phenol] as the molecule, how does the “cytotoxic effect on B16F10 cell viability” value [1] read?
**A.** Neither compound exhibited a significant cytotoxic effect

**Q.** What about the melanin release ([2]; 20 µM) of the same molecule?
**A.** reduced melanin release to control levels

**Q.** What about the “effect on melanin content in media” value ([2]; 5, 10, 20 µM, α-MSH (1 µM) + IBMX (200 µM), 48 h) of the same molecule?
**A.** concentration-dependently and significantly reduced melanin content increases

**Q.** What about the “inhibition of α-MSH/IBMX-induced intracellular melanin increase” value [3, 5] of the same molecule?
**A.** more potently inhibited α-MSH/IBMX-induced increases in melanin than kojic acid at 20 µM

**Q.** And the “effect on intracellular melanin content” value ([3]; 5, 10, 20 µM, α-MSH + IBMX, 48 h)?
**A.** significantly and concentration-dependently reduced intracellular melanin increases

**Q.** What about the melting point of the same molecule?
**A.** 187.2 to 188.9 °C

**Q.** What about the cellular tyrosinase activity [4, 5] of the same molecule?
**A.** reduced tyrosinase activity to that achieved by 20 µM kojic acid

**Q.** And the “effect on cellular tyrosinase activity” value ([4]; 5, 10, 20 µM, IBMX + α-MSH, 48 h)?
**A.** significantly and concentration-dependently suppressed

**Q.** What about the IC50 (mushroom tyrosinase; L-tyrosine as substrate) of the same molecule?
**A.** 54.2 ± 0.82 µM

**Q.** What about the inhibition at 10 µM (mushroom tyrosinase; [6]) of the same molecule?
**A.** 30.4 ± 0.31%

**Q.** And the inhibition at 50 µM (mushroom tyrosinase; [6])?
**A.** 48.2 ± 0.25%
